The values below come from paper PMC12308784, “Organometallic Half-Sandwich Complexes of 1,10-Phenanthroline Derivatives with Improved Solubility, Albumin-Binding, and Nanoformulation Potential Targeting Drug Resistance in Cancer” (Inorganic Chemistry, 2025).

The experiment in a line: ternary complex formation with histidine model 1-methylimidazole by 1H NMR. Particulars: PBS’ pH 7.4. The text has this: Our other aim was to investigate the binding kinetics of RuCymBP over a longer period of time, since MeIm has no such stability problems compared to HSA in a 2 week follow-up.
Slow exchange of the aqua and chlorido complexes on the NMR time scale is not unique for RuCym complexes; formerly we have observed the same phenomenon with 2-picolinate and cyclometalated 4-phenylthiazole complexes. , The ternary complex formation with MeIm is rather slow; at a 1:1 ratio, the emergence of a new peak can be observed after 6 days, and only ca. 10% ternary complex forms after 14 days. By increasing the MeIm excess to 10-fold, the ternary complex becomes detectable after 8 h and about 2/3 of the metal complex transforms to the ternary species after 14 days. ^1H NMR studies on the RhCp*BP – MeIm system indicated a more rapid and almost quantitative interaction (Figure S21). […] The quantity of the ternary complex formed with MeIm agrees very well with previously reported data on RhCp*BPY–MeIm (67%), although the complex formation was reported to be slower for the latter. […]
A Bruker AVANCE III HD Ascend 500 Plus instrument was used for NMR studies. For the characterization of the complexes both the ^1H and ^13C NMR spectra were recorded in CD3OD (10 mM, t = 25 °C). […]
Figure S 19. Fluorescence emission spectra of HSA in the presence of RhCp*BP over 5 h { cRhCp*BP = […]

Each structure is given as a SMILES string.

With `Cc1ccc(C(C)C)cc1.[Cl-].[Cl-].[Ru+2].c1ccc(-c2ccnc3c2ccc2c(-c4ccccc4)ccnc23)cc1` [RuCymBP, [Ru(II)(η^6-p-cymene)(bathophenanthroline)Cl]Cl], the “time until the ternary complex is detectable” value (10-fold MeIm excess) was 8 h. For the same molecule, the “time until the ternary complex peak emerges” value (complex:MeIm 1:1) stood at 6 days.
